logP, T/C and minimal effective dose data for 2 compounds are collected here from ChEMBL document CHEMBL1123664, “Preparation and antitumor activity of new mitomycin A analogues” (J Med Chem, 1987).

Values joined by “and” are separate entries in the source; they are usually repeats but may differ in a detail not shown here. Identical values can stand only once.

A short description of series [1]: Partition coefficient (logP). It is filed as physicochemical. The conditions noted are these: octanol/water.
For series [2], the system named is P388. Briefly: Antitumor activity against intraperitoneally implanted P388 leukemia cells in mice expressed as ratio of median survival time for treated group to that of control group at an optimal dose of 3.2 mg/kg. It is filed as functional, Mus musculus. The conditions noted are these: route intraperitoneal.
The subject of series [3] is P388. Briefly: Antitumor activity against intraperitoneally implanted P388 leukemia cells in mice expressed as […] effective dose at an optimal dose of 3.2 mg/kg. The format is functional. The settings on record: Mus musculus, P388, ip, route intraperitoneal, read-out: MED.
Series [4] deals with P388. Briefly: Antitumor activity against intraperitoneally implanted P388 leukemia cells in mice expressed as ratio of median survival time for treated group to that of control group at an optimal dose of 12.8 mg/kg. It is filed as functional, Mus musculus. The conditions noted are these: route intraperitoneal.
Series [5] deals with P388. Briefly: Antitumor activity against intraperitoneally implanted P388 leukemia cells in mice at an optimal dose of 12.8 mg/kg expressed as […] effective dose. The format is functional. The settings on record: Mus musculus, P388, ip, route intraperitoneal, read-out: MED.

Usually logP stands for the decadic logarithm of the partition coefficient of the neutral form, usually between octanol and water. High values mean higher lipophilicity, low ones lower lipophilicity. As usually defined, the T/C is the result in the treated group divided by that in the control group, in per cent. `CO[C@@]12C(COC(N)=O)C3=C(C(=O)C(C)=C(OCc4ccccc4)C3=O)N1CC1NC12` (stereo not given in full): the logP in series [1] turned out to be 2.22. Further, the T/C in the series with P388 [2] is reported as 167%. The minimal effective dose at 3.2 mg/kg in the series with P388 [3] is less than 0.2 mg/kg.
As to `CO[C@@]12C(COC(N)=O)C3=C(C(=O)C(C)=C(OCC(O)CO)C3=O)N1CC1NC12` (stereo not given in full), the T/C in the series on P388 [4] was 225% and 205%. The minimal effective dose at 12.8 mg/kg in the series with P388 [5] came to 0.2 mg/kg.
